This note sets out measurements from PubChem BioAssay AID1963840 (Molecular Pharmacology Branch, DTP, NCI, 2024).

SMILES strings stand for the structures.
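Further: spheroids exposed to compounds for seven days; 100% = DMSO vehicle control viability.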

In the first test the test system is 695427-040-R-J1-PDC complex spheroid viability. Description: Anticancer human tumor 695427-040-R-J1-PDC patient-derived colon adenocarcinoma cell line growth inhibition [POLQ]. Conditions: second compound 3.16 µM; first compound 0.1 µM; stronger effect = lower value. In outline: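 Growth inhibition in 3D: complex spheroids (tumor PDC, HUVEC, MSC) treated with POLQ inhibitor combinations; where Cmax unknown, highest tested concentration 10 microM, except SN-38 at 1 microM.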
The term viability, T/C denotes the result in the treated group divided by that in the control group, in per cent. `CCCS(=O)(=O)Nc1ccc(F)c(C(=O)c2c[nH]c3ncc(-c4ccc(Cl)cc4)cc23)c1F` + COC1C(OC(N)=O)C(O)C(Oc2ccc3c(O)c(NC(=O)c4ccc(O)c(CC=C(C)C)c4)c(=O)oc3c2C)OC1(C)C: the viability, T/C was 107%.

Turning to `CNCc1ccc(-c2[nH]c3cc(F)cc4c3c2CCNC4=O)cc1` + COC1C(OC(N)=O)C(O)C(Oc2ccc3c(O)c(NC(=O)c4ccc(O)c(CC=C(C)C)c4)c(=O)oc3c2C)OC1(C)C, the viability, T/C was 99.3%.

Consider `COc1cccc(OCCCN)c1-c1cc(Nc2cnc(C#N)cn2)n[nH]1` + COC1C(OC(N)=O)C(O)C(Oc2ccc3c(O)c(NC(=O)c4ccc(O)c(CC=C(C)C)c4)c(=O)oc3c2C)OC1(C)C, for which the viability, T/C is 67.2%.

Consider `O=C(c1cc(Cc2n[nH]c(=O)c3ccccc23)ccc1F)N1CCN(C(=O)C2CC2)CC1` + COC1C(OC(N)=O)C(O)C(Oc2ccc3c(O)c(NC(=O)c4ccc(O)c(CC=C(C)C)c4)c(=O)oc3c2C)OC1(C)C, for which the viability, T/C is 96.7%.

Still in this test, the particulars now being: second compound 3.16 µM; first compound 0.316 µM; stronger effect = lower value.
With `CCCS(=O)(=O)Nc1ccc(F)c(C(=O)c2c[nH]c3ncc(-c4ccc(Cl)cc4)cc23)c1F` + COC1C(OC(N)=O)C(O)C(Oc2ccc3c(O)c(NC(=O)c4ccc(O)c(CC=C(C)C)c4)c(=O)oc3c2C)OC1(C)C, the viability, T/C was 100%.

`CNCc1ccc(-c2[nH]c3cc(F)cc4c3c2CCNC4=O)cc1` + COC1C(OC(N)=O)C(O)C(Oc2ccc3c(O)c(NC(=O)c4ccc(O)c(CC=C(C)C)c4)c(=O)oc3c2C)OC1(C)C: the viability, T/C is 108%.

For `COc1cccc(OCCCN)c1-c1cc(Nc2cnc(C#N)cn2)n[nH]1` + COC1C(OC(N)=O)C(O)C(Oc2ccc3c(O)c(NC(=O)c4ccc(O)c(CC=C(C)C)c4)c(=O)oc3c2C)OC1(C)C, the viability, T/C was 56.3%.

Consider `O=C(c1cc(Cc2n[nH]c(=O)c3ccccc23)ccc1F)N1CCN(C(=O)C2CC2)CC1` + COC1C(OC(N)=O)C(O)C(Oc2ccc3c(O)c(NC(=O)c4ccc(O)c(CC=C(C)C)c4)c(=O)oc3c2C)OC1(C)C, for which the viability, T/C was 94.3%.

Still in this test, the particulars now being: second compound 3.16 µM; first compound 1 µM; stronger effect = lower value.
As to `CCCS(=O)(=O)Nc1ccc(F)c(C(=O)c2c[nH]c3ncc(-c4ccc(Cl)cc4)cc23)c1F` + COC1C(OC(N)=O)C(O)C(Oc2ccc3c(O)c(NC(=O)c4ccc(O)c(CC=C(C)C)c4)c(=O)oc3c2C)OC1(C)C, the viability, T/C was 106%.

`CNCc1ccc(-c2[nH]c3cc(F)cc4c3c2CCNC4=O)cc1` + COC1C(OC(N)=O)C(O)C(Oc2ccc3c(O)c(NC(=O)c4ccc(O)c(CC=C(C)C)c4)c(=O)oc3c2C)OC1(C)C: the viability, T/C was 93.2%.

Take `COc1cccc(OCCCN)c1-c1cc(Nc2cnc(C#N)cn2)n[nH]1` + COC1C(OC(N)=O)C(O)C(Oc2ccc3c(O)c(NC(=O)c4ccc(O)c(CC=C(C)C)c4)c(=O)oc3c2C)OC1(C)C: the viability, T/C is 38.7%.

As for `O=C(c1cc(Cc2n[nH]c(=O)c3ccccc23)ccc1F)N1CCN(C(=O)C2CC2)CC1` + COC1C(OC(N)=O)C(O)C(Oc2ccc3c(O)c(NC(=O)c4ccc(O)c(CC=C(C)C)c4)c(=O)oc3c2C)OC1(C)C, the viability, T/C was 108%.

Still in this test, the particulars now being: second compound 3.16 µM; first compound 3.16 µM; stronger effect = lower value.
Consider `CCCS(=O)(=O)Nc1ccc(F)c(C(=O)c2c[nH]c3ncc(-c4ccc(Cl)cc4)cc23)c1F` + COC1C(OC(N)=O)C(O)C(Oc2ccc3c(O)c(NC(=O)c4ccc(O)c(CC=C(C)C)c4)c(=O)oc3c2C)OC1(C)C, for which the viability, T/C was 109%.

Regarding `CNCc1ccc(-c2[nH]c3cc(F)cc4c3c2CCNC4=O)cc1` + COC1C(OC(N)=O)C(O)C(Oc2ccc3c(O)c(NC(=O)c4ccc(O)c(CC=C(C)C)c4)c(=O)oc3c2C)OC1(C)C, the viability, T/C is 117%.

Regarding `O=C(c1cc(Cc2n[nH]c(=O)c3ccccc23)ccc1F)N1CCN(C(=O)C2CC2)CC1` + COC1C(OC(N)=O)C(O)C(Oc2ccc3c(O)c(NC(=O)c4ccc(O)c(CC=C(C)C)c4)c(=O)oc3c2C)OC1(C)C, the viability, T/C is 117%.

The same test, now with this note: second compound 3.16 µM; first compound 10 µM; stronger effect = lower value.
As to `CCCS(=O)(=O)Nc1ccc(F)c(C(=O)c2c[nH]c3ncc(-c4ccc(Cl)cc4)cc23)c1F` + COC1C(OC(N)=O)C(O)C(Oc2ccc3c(O)c(NC(=O)c4ccc(O)c(CC=C(C)C)c4)c(=O)oc3c2C)OC1(C)C, the viability, T/C was 79.4%.

With `CNCc1ccc(-c2[nH]c3cc(F)cc4c3c2CCNC4=O)cc1` + COC1C(OC(N)=O)C(O)C(Oc2ccc3c(O)c(NC(=O)c4ccc(O)c(CC=C(C)C)c4)c(=O)oc3c2C)OC1(C)C, the viability, T/C is 103%.

For `O=C(c1cc(Cc2n[nH]c(=O)c3ccccc23)ccc1F)N1CCN(C(=O)C2CC2)CC1` + COC1C(OC(N)=O)C(O)C(Oc2ccc3c(O)c(NC(=O)c4ccc(O)c(CC=C(C)C)c4)c(=O)oc3c2C)OC1(C)C, the viability, T/C was 112%.

Still in this test, the particulars now being: second compound 10 µM; first compound 0.00316 µM; stronger effect = lower value.
Turning to `COc1cccc(OCCCN)c1-c1cc(Nc2cnc(C#N)cn2)n[nH]1` + COC1C(OC(N)=O)C(O)C(Oc2ccc3c(O)c(NC(=O)c4ccc(O)c(CC=C(C)C)c4)c(=O)oc3c2C)OC1(C)C, the viability, T/C was 100%.

Still in this test, the particulars now being: second compound 10 µM; first compound 0.01 µM; stronger effect = lower value.
Take `COc1cccc(OCCCN)c1-c1cc(Nc2cnc(C#N)cn2)n[nH]1` + COC1C(OC(N)=O)C(O)C(Oc2ccc3c(O)c(NC(=O)c4ccc(O)c(CC=C(C)C)c4)c(=O)oc3c2C)OC1(C)C: the viability, T/C was 84.9%.

The same test, now with this note: second compound 10 µM; first compound 0.0316 µM; stronger effect = lower value.
`CCCS(=O)(=O)Nc1ccc(F)c(C(=O)c2c[nH]c3ncc(-c4ccc(Cl)cc4)cc23)c1F` + COC1C(OC(N)=O)C(O)C(Oc2ccc3c(O)c(NC(=O)c4ccc(O)c(CC=C(C)C)c4)c(=O)oc3c2C)OC1(C)C: the viability, T/C was 107%.

Regarding `CNCc1ccc(-c2[nH]c3cc(F)cc4c3c2CCNC4=O)cc1` + COC1C(OC(N)=O)C(O)C(Oc2ccc3c(O)c(NC(=O)c4ccc(O)c(CC=C(C)C)c4)c(=O)oc3c2C)OC1(C)C, the viability, T/C is 98.1%.

`COc1cccc(OCCCN)c1-c1cc(Nc2cnc(C#N)cn2)n[nH]1` + COC1C(OC(N)=O)C(O)C(Oc2ccc3c(O)c(NC(=O)c4ccc(O)c(CC=C(C)C)c4)c(=O)oc3c2C)OC1(C)C: the viability, T/C is 81.1%.

Take `O=C(c1cc(Cc2n[nH]c(=O)c3ccccc23)ccc1F)N1CCN(C(=O)C2CC2)CC1` + COC1C(OC(N)=O)C(O)C(Oc2ccc3c(O)c(NC(=O)c4ccc(O)c(CC=C(C)C)c4)c(=O)oc3c2C)OC1(C)C: the viability, T/C is 103%.

Staying with this test, now noted: second compound 10 µM; first compound 0.1 µM; stronger effect = lower value.
In the case of `CCCS(=O)(=O)Nc1ccc(F)c(C(=O)c2c[nH]c3ncc(-c4ccc(Cl)cc4)cc23)c1F` + COC1C(OC(N)=O)C(O)C(Oc2ccc3c(O)c(NC(=O)c4ccc(O)c(CC=C(C)C)c4)c(=O)oc3c2C)OC1(C)C, the viability, T/C is 102%.

For the compound `CNCc1ccc(-c2[nH]c3cc(F)cc4c3c2CCNC4=O)cc1` + COC1C(OC(N)=O)C(O)C(Oc2ccc3c(O)c(NC(=O)c4ccc(O)c(CC=C(C)C)c4)c(=O)oc3c2C)OC1(C)C, the viability, T/C is 91.8%.

For the compound `COc1cccc(OCCCN)c1-c1cc(Nc2cnc(C#N)cn2)n[nH]1` + COC1C(OC(N)=O)C(O)C(Oc2ccc3c(O)c(NC(=O)c4ccc(O)c(CC=C(C)C)c4)c(=O)oc3c2C)OC1(C)C, the viability, T/C is 68.9%.

As to `O=C(c1cc(Cc2n[nH]c(=O)c3ccccc23)ccc1F)N1CCN(C(=O)C2CC2)CC1` + COC1C(OC(N)=O)C(O)C(Oc2ccc3c(O)c(NC(=O)c4ccc(O)c(CC=C(C)C)c4)c(=O)oc3c2C)OC1(C)C, the viability, T/C is 103%.

The test is the same for the next values; noted with them: second compound 10 µM; first compound 0.316 µM; stronger effect = lower value.
With `CCCS(=O)(=O)Nc1ccc(F)c(C(=O)c2c[nH]c3ncc(-c4ccc(Cl)cc4)cc23)c1F` + COC1C(OC(N)=O)C(O)C(Oc2ccc3c(O)c(NC(=O)c4ccc(O)c(CC=C(C)C)c4)c(=O)oc3c2C)OC1(C)C, the viability, T/C was 91.8%.

As to `CNCc1ccc(-c2[nH]c3cc(F)cc4c3c2CCNC4=O)cc1` + COC1C(OC(N)=O)C(O)C(Oc2ccc3c(O)c(NC(=O)c4ccc(O)c(CC=C(C)C)c4)c(=O)oc3c2C)OC1(C)C, the viability, T/C is 106%.

As to `COc1cccc(OCCCN)c1-c1cc(Nc2cnc(C#N)cn2)n[nH]1` + COC1C(OC(N)=O)C(O)C(Oc2ccc3c(O)c(NC(=O)c4ccc(O)c(CC=C(C)C)c4)c(=O)oc3c2C)OC1(C)C, the viability, T/C was 55.2%.

With `O=C(c1cc(Cc2n[nH]c(=O)c3ccccc23)ccc1F)N1CCN(C(=O)C2CC2)CC1` + COC1C(OC(N)=O)C(O)C(Oc2ccc3c(O)c(NC(=O)c4ccc(O)c(CC=C(C)C)c4)c(=O)oc3c2C)OC1(C)C, the viability, T/C is 115%.

Staying with this test, now noted: second compound 10 µM; first compound 1 µM; stronger effect = lower value.
`CCCS(=O)(=O)Nc1ccc(F)c(C(=O)c2c[nH]c3ncc(-c4ccc(Cl)cc4)cc23)c1F` + COC1C(OC(N)=O)C(O)C(Oc2ccc3c(O)c(NC(=O)c4ccc(O)c(CC=C(C)C)c4)c(=O)oc3c2C)OC1(C)C: the viability, T/C is 113%.

`CNCc1ccc(-c2[nH]c3cc(F)cc4c3c2CCNC4=O)cc1` + COC1C(OC(N)=O)C(O)C(Oc2ccc3c(O)c(NC(=O)c4ccc(O)c(CC=C(C)C)c4)c(=O)oc3c2C)OC1(C)C: the viability, T/C was 109%.

`COc1cccc(OCCCN)c1-c1cc(Nc2cnc(C#N)cn2)n[nH]1` + COC1C(OC(N)=O)C(O)C(Oc2ccc3c(O)c(NC(=O)c4ccc(O)c(CC=C(C)C)c4)c(=O)oc3c2C)OC1(C)C: the viability, T/C was 39.8%.

As to `O=C(c1cc(Cc2n[nH]c(=O)c3ccccc23)ccc1F)N1CCN(C(=O)C2CC2)CC1` + COC1C(OC(N)=O)C(O)C(Oc2ccc3c(O)c(NC(=O)c4ccc(O)c(CC=C(C)C)c4)c(=O)oc3c2C)OC1(C)C, the viability, T/C was 107%.

Staying with this test, now noted: second compound 10 µM; first compound 3.16 µM; stronger effect = lower value.
On to `CCCS(=O)(=O)Nc1ccc(F)c(C(=O)c2c[nH]c3ncc(-c4ccc(Cl)cc4)cc23)c1F` + COC1C(OC(N)=O)C(O)C(Oc2ccc3c(O)c(NC(=O)c4ccc(O)c(CC=C(C)C)c4)c(=O)oc3c2C)OC1(C)C, for which the viability, T/C is 116%.

On to `CNCc1ccc(-c2[nH]c3cc(F)cc4c3c2CCNC4=O)cc1` + COC1C(OC(N)=O)C(O)C(Oc2ccc3c(O)c(NC(=O)c4ccc(O)c(CC=C(C)C)c4)c(=O)oc3c2C)OC1(C)C, for which the viability, T/C is 114%.

Regarding `O=C(c1cc(Cc2n[nH]c(=O)c3ccccc23)ccc1F)N1CCN(C(=O)C2CC2)CC1` + COC1C(OC(N)=O)C(O)C(Oc2ccc3c(O)c(NC(=O)c4ccc(O)c(CC=C(C)C)c4)c(=O)oc3c2C)OC1(C)C, the viability, T/C was 114%.

The test is the same for the next values; noted with them: second compound 10 µM; first compound 10 µM; stronger effect = lower value.
Turning to `CCCS(=O)(=O)Nc1ccc(F)c(C(=O)c2c[nH]c3ncc(-c4ccc(Cl)cc4)cc23)c1F` + COC1C(OC(N)=O)C(O)C(Oc2ccc3c(O)c(NC(=O)c4ccc(O)c(CC=C(C)C)c4)c(=O)oc3c2C)OC1(C)C, the viability, T/C is 77%.

For the compound `CNCc1ccc(-c2[nH]c3cc(F)cc4c3c2CCNC4=O)cc1` + COC1C(OC(N)=O)C(O)C(Oc2ccc3c(O)c(NC(=O)c4ccc(O)c(CC=C(C)C)c4)c(=O)oc3c2C)OC1(C)C, the viability, T/C was 113%.

On to `O=C(c1cc(Cc2n[nH]c(=O)c3ccccc23)ccc1F)N1CCN(C(=O)C2CC2)CC1` + COC1C(OC(N)=O)C(O)C(Oc2ccc3c(O)c(NC(=O)c4ccc(O)c(CC=C(C)C)c4)c(=O)oc3c2C)OC1(C)C, for which the viability, T/C was 97%.
